{"source": "patent US20240122885A1", "about": "“Endometriosis-Related Methods and Compositions” (The Regents of the University of California, priority 2021, published 2024)", "tested_on": "rat model of endometriosis", "test": "behavioral assessment of vaginal nociception (escape response) in rat model of endometriosis", "type": "in vivo", "conditions": "30 mg/kg/day p.o.; for Post-Treatment period (PT) median escape response: four weeks of treatment, proestrus", "text": "Baseline vaginal nociception was first assessed in rats. Then, endometriosis was induced when rats were four months of age by suturing uterine fragments within the peritoneal cavity to generate ectopic endometrium (lesions). […] In this model, four (2 mm×2 mm) pieces of uterine horn are auto transplanted onto cascading mesenteric arteries within the pelvic cavity of rats that are hormonally and immunologically intact. The present model avoids ovariectomy followed by estradiol supplementation that is common in most mouse models which eliminates the natural estradiol variations within the estrous cycle and the ability to assess drug treatment effects on fertility.\nBehavioral assessment of vaginal nociception: Volumes of water (0.01, 0.15, 0.30, 0.40, 0.55, 0.70, 0.80, and 0.90 mL) were delivered via a vaginal balloon to the rat's vaginal canal. When the previously trained rat detects this stimulus as noxious, she will poke her head into a tube to break an infrared (IR) beam. This beam break terminates the stimulus (balloon deflates). During each testing session, eight different distention volumes were delivered randomly three times each ˜60 seconds apart. The maximum latency of 15 seconds is considered to be no response. The experimenter was blinded to the volumes being delivered.\nData analyses of behavioral results: Percent escape responses as a function of distention volume were measured in each session. For each rat, the escape response percentages as a function of distention volume from all sessions for each testing period were determined. The median escape response percentage and interquartile range (IQR) for all rats from each testing period was determined.\nStatistical analyses were performed using Mann Whitney U test, and p-values were corrected using the Bonferroni correction method.", "data": [{"smiles": "CC(C(=O)O)c1cccc(Oc2ccccc2)c1", "note": "(stereo not shown) [fenoprofen]", "values": [{"measurement": "escape responses between the baseline period and the post-treatment period", "setting": "any volume of water delivered, Mann Whitney U test, Bonferroni-corrected threshold 0.05", "result": "No statistically significant difference"}, {"measurement": "Post-Treatment period (PT) median escape response", "setting": "volume 0.01 mL", "result": 0, "unit": "%"}, {"measurement": "Post-Treatment period (PT) median escape response", "setting": "volume 0.15 mL", "result": 0, "unit": "%"}, {"measurement": "Post-Treatment period (PT) median escape response", "setting": "volume 0.3 mL", "result": 0, "unit": "%"}, {"measurement": "Post-Treatment period (PT) median escape response", "setting": "volume 0.4 mL", "result": 16.65, "unit": "%"}, {"measurement": "Post-Treatment period (PT) median escape response", "setting": "volume 0.55 mL", "result": 33.3, "unit": "%"}, {"measurement": "Post-Treatment period (PT) median escape response", "setting": "volume 0.7 mL", "result": 66.6, "unit": "%"}, {"measurement": "Post-Treatment period (PT) median escape response", "setting": "volume 0.8 mL", "result": 100, "unit": "%"}, {"measurement": "Post-Treatment period (PT) median escape response", "setting": "volume 0.9 mL", "result": 100, "unit": "%"}, {"measurement": "escape responses during the post-treatment period compared to the post-endo surgery period", "setting": "volumes of 0.15, 0.3, 0.4, 0.55, 0.7 and 0.8 mL, Mann Whitney U test, Bonferroni-corrected threshold 0.05", "result": "significantly decreased"}]}]}
